In US3981868A:
≈ marks a conversion by molar mass, not a printed value.

Assays:
[1] = tested on: diastolic blood pressure; test: hypotensive activity in anesthetized rats (minimal dose lowering diastolic blood pressure about 10 mm.); type: in vivo, Male Wistar strain rats; conditions: Rattus norvegicus; intravenous; dose producing a decrease of about 10 mm. in diastolic blood pressure
Description: This procedure is a modification of the technique described by Pike et al., Prostaglandins, Nobel Symposium 2, Stockholm, June, 1966; p. 165.
Male Wistar strain rats (Royal Hart Farms) averaging approximately 250 grams in weight were fastened to rat boards in a supine position by means of canvas vests and limb ties. The femoral area was infiltrated subcutaneously with lidocaine and the iliac artery and vein were exposed and cannulated. Arterial blood pressure (systolic/diastolic) was recorded using a Statham P23 Db pressure transducer-Offner dynograph system. To obtain a stable blood pressure, the animals were anesthetized before use with pentobarbital, 30 mg./kg. of body weight intravenously, and also were given hexamethonium bitartrate, 2 mg./kg., of body weight intravenously. The test compounds were prepared by ultrasonic dispersion in a saline-Tween 80 vehicle. A constant intravenous dose volume of 0.5 ml. was administered and test doses ranged from 0.1 to 10.0 mg./kg. of body weight. Increasing or decreasing doses were selected depending on the dose response obtained. In Table I below are set forth the minimal doses required to produce a decrease of about 10 mm. in diastolic blood pressure for typical compounds of the present invention.

[2] = tested on: Mycobacterium smegmatis ATCC 606; test: agar-dilution streak-plate antibacterial assay (6); type: cell-based; conditions: Mycolicibacterium smegmatis, ATCC606, read-out: Minimal inhibitory conc.
Description: (§1) The novel compounds of the present invention are also useful as antimicrobial agents. […] In this assay, the compounds to be tested are made up to contain 2.5 mg. of test compound per milliliter of solution. Observing sterile techniques, two-fold serial dilutions are made of each test solution. One milliliter of each of the original solutions and of each of the serial dilutions is then added to 9 ml. of warm sterile nutrient agar capable of supporting growth of the bacterial test cultures. A second set of agar dilutions is prepared identical to the first except that the nutrient agar is designed to support the growth of the fungal test cultures. […] The test bacteria and yeast-like fungi are prepared for use by growing in broth overnight. The spores of the filamentous fungi are harvested from mature agar slant cultures and are suspended in sterile physiological saline solution. A loopful of each of the resulting live suspensions is then, still employing sterile techniques, streaked upon the surfaces of each of the agar plates and the resulting streaked plates are then incubated. After an appropriate period of time, each of the streaks on each of the plates is inspected visually and the extent, if any, of bacterial or fungal growth is noted. The minimal inhibitory concentration (expressed in micrograms per milliliter) is defined as the concentration of test compound causing complete inhibition of growth of any particular organism. In a representative operation, and merely by way of illustration, the minimal inhibitory concentration of typical compounds of the present invention against a variety of test organisms as determined in the above-described assay are set forth in Tables II and III below: […]

[3] = tested on: Trichophyton rubrum E 97; test: agar-dilution streak-plate antifungal assay (5); type: cell-based; conditions: E97, read-out: Minimal inhibitory conc.
Description: as §1

[4] = tested on: Staphylococcus aureus Rose ATCC 14154; test: agar-dilution streak-plate antibacterial assay (7); type: cell-based; conditions: ATCC14154, read-out: Minimal inhibitory conc.
Description: as §1

[5] = tested on: Streptococcus pyogenes C 203; test: agar-dilution streak-plate antibacterial assay (8); type: cell-based; conditions: C203, read-out: Minimal inhibitory conc.
Description: as §1

[6] = tested on: Microsporum canis ATCC 10214; test: agar-dilution streak-plate antifungal assay (1); type: cell-based; conditions: ATCC10214, read-out: Minimal inhibitory conc.
Description: as §1

[7] = tested on: Microsporum gypseum ATCC 14683; test: agar-dilution streak-plate antifungal assay (2); type: cell-based; conditions: Nannizzia gypsea, ATCC14683, read-out: Minimal inhibitory conc.
Description: as §1

[8] = tested on: Trichophyton tonsurans NIH 662; test: agar-dilution streak-plate antifungal assay (3); type: cell-based; conditions: NIH662, read-out: Minimal inhibitory conc.
Description: as §1

[9] = tested on: dl-PGE1-induced contraction of gerbil colon; test: inhibition of dl-PGE1-induced contraction of gerbil colon; conditions: approximate; for ID50 vs. 20 ng. of PGE1 /ml.: sub-maximal challenge, 20 ng./ml. dl-PGE1, 50% inhibition of maximum response
Description: Testing for prostaglandin antagonist action is carried out in the following manner.
Sections of ascending colon, approximately 20 mm. long, from mature male gerbils (Meriones unguiculatus) weighing 70-80 g. were mounted in DeJalon's solution (154 mM NaCl; 5.95 mM NAHCO3 ; 278 mM glucose, 5.64 mM KCl and .27 mM Cacl2 in 20 ml. tissue baths) (L. and K Glass Co., Lynnhurst, N.J.). The medium was continually gassed with a mixture of 95% 02 -5% CO2 and maintained at 37°C. The tissues were suspended via silk suture threads between a glass hook at the base and a model FT .03C force displacement transducer (Grass Instrument, Quincy, Mass.).
After mounting, tissues were allowed to stabilize 15-20 minutes during which time adjustments were made to establish and maintain a 0.5 g. resting tension on the muscle. Thereafter, test cycles of 3-5 minutes were begun and consisted of a 1 minute exposure to the potential antagonist, if called for, followed by a 1 minute exposure to the prostaglandin agonist, a 15-30 sec. washout and a recovery period of 2-2.5 minutes. […] During the washout period, the tissue was rinsed with a measured amount equalling 8 volumes of medium. Muscle relaxation was virtually complete by the end of the washout period.
Following stabilization, muscles were exposed 2 to 3 times to this concentration of dl-PGE1 until a consistent response was recorded. Once maximal responses are established, test cycles with potential antagonists were commenced and were followed alternatively with prostaglandin-only test cycle. […] The contraction of the muscle induced by 200 ng./ml. dl-PGE1 following exposure to a given concentration of the potential antagonist was always compared to the response of the tissue to that level of dl-PGE1 in the immediately preceding cycle. Using a series of potential antagonist concentrations, an approximate ID50 (concentration at which 50% inhibition was observed) was established.

[10] = tested on: gastric acid secretion; test: inhibition of gastric acid secretion (pylorus-ligated rat, Shay rat); type: in vivo, rats (male, CFE strain); conditions: intraduodenal dose 100 mg./kg. body weight, 3 hours, 20% or more considered active
Description: The novel compounds of the present invention are also effective inhibitors of gastric acid secretion and of ulcer development in experimental animals, and thus are potentially valuable as agents for the control of gastric acid secretion and of gastric erosion and as anti-ulcer agents. Gastric acid secretion inhibitory action is usually measured by the "Shay rat" procedure ^(1,2) with some modifications as follows.
The rats (male, CFE strain) were starved for 48 hours (water was given ad libitum) to permit evacuation of stomach contents. On the morning of the experiment, under ether anesthesia, the abdominal region was shaved and a midline incision (1-11/2 inches) was made with a scalpel. With the help of a closed curved hemostat the duodenum was picked up. Upon getting the duodenum into view fingers were used to pull the stomach through the opening, the stomach was then gently manipulated with fingers to rid the stomach of air and residual matter which were pushed through the pylorus. Two 5-inch sutures were drawn under the pyloric-duodenal juncture. A ligature, at the juncture, was formed with one of the threads. The second ligature was also formed by not tightened.
The test compound or the vehicle, usually 1 ml./100 g. body weight, were injected into the duodenum as close as possible to the first ligature. After injection the second ligature was tightened below the injection site to minimize leakage. The stomach was placed back through the opening into the abdominal cavity, the area of incision was washed with saline and the incision was closed with autoclips. (Ocasionally, instead of an intraduodenal injection, animals were dosed by the oral or subcutaneous route. In the latter case, dosing was done thirty to sixty minutes before the operation).
The abdominal cavity was exposed by cutting with scissors and the esophagus close to the stomach was clamped off with a hemostat, the stomach was removed by cutting above the hemostat (the espohagus was cut) and between the two sutures. Extraneous tissue was removed, the stomach washed with saline and blotted on gauze. A slit was carefully made in the stomach which was held over a funnel and the contents were collected in a centrifuge tube. The stomach was further cut along the outside edge and turned inside out. Two ml. of water were used to wash the stomach contents into the respective centrifuge tube. The combined stomach contents and wash were then centrifuged out for 10 minutes in the International Size 2 Centrifuge (setting at 30). The supernatant was collected, volume measured and recorded, 2 drops of phenolphthalein indicator (1% in 95% ethanol) were added and the solution was titrated with 0.02N NaOH (or with 0.04N NaOH when large volumes of stomach contents were encountered) to pH 8.4 (because of usual coloring of the stomach contents, phenolphthalein was only used to permit visual indication that the end point was near) and the amount of acid present was calculated.
Compounds inducing inhibition of gastric acid secretion of 20% or more were considered active. In a representative operation, and merely by way of illustration, the results obtained with this assay with typical compounds of the present invention are given in Table IIIA.

[11] = tested on: Trichophyton mentagrophytes E 11?; test: agar-dilution streak-plate antifungal assay (4); type: cell-based; conditions: read-out: Minimal inhibitory conc.
Description: as §1

| Compound | minimal effective dose [1] [mg/kg] | MIC [2] [µg/mL] | MIC [3] [µg/mL] | MIC [4] [µg/mL] | MIC [5] [µg/mL] | MIC [6] [µg/mL] | MIC [7] [µg/mL] | MIC [8] [µg/mL] | ID50 vs. 20 ng. of PGE1 /ml. [9] [µg/mL] | Percent Inhibition of gastric acid secretion [10] [%] | MIC [11] [µg/mL] | ID50 vs. 200 ng. of PGE1 ml. ([9]; maximal challenge, 200 ng./ml. dl-PGE1) [µg/mL] |
| --- | --- | --- | --- | --- | --- | --- | --- | --- | --- | --- | --- | --- |
| CCCCCC/C=C/[C@H]1CCC(=O)[C@@H]1CCCCCCC(=O)NN(C)C (relative stereo) [N-(dimethylamino)-9-oxo-13-trans-prostenamide] | 2 | 10 (≈ 27.4 µM) | 25 (≈ 68.6 µM) | 25 (≈ 68.6 µM) | 10 (≈ 27.4 µM) | 25 (≈ 68.6 µM) | 25 (≈ 68.6 µM) | 25 (≈ 68.6 µM) | 0.5 | 58 | 25 (≈ 68.6 µM) | – |
| CCCCCC/C=C/[C@H]1CCC(=O)[C@@H]1CCCCCCC(=O)N1CCN(C)CC1 (relative stereo) [listing 1 of 2 here] | – | – | – | – | – | – | – | – | 0.5 | – | – | 3 |
| CCCCCC/C=C/[C@H]1CCC(=O)[C@@H]1CCCCCCC(=O)N(C)C (relative stereo) [N,N-dimethyl-9-oxo-13-trans-prostenamide] | 2 | 10 (≈ 28.6 µM) | 25 (≈ 71.5 µM) | 25 (≈ 71.5 µM) | 10 (≈ 28.6 µM) | 25 (≈ 71.5 µM) | 25 (≈ 71.5 µM) | 25 (≈ 71.5 µM) | 2 | – | 25 (≈ 71.5 µM) | – |
| CCCCCC/C=C/[C@H]1CCC(=O)[C@@H]1CCCCCCC(=O)N1CCCC1 (relative stereo) | 8 | 5 (≈ 13.3 µM) | 25 (≈ 66.6 µM) | 50 (≈ 133 µM) | 5 (≈ 13.3 µM) | 100 (≈ 266 µM) | 10 (≈ 26.6 µM) | 50 (≈ 133 µM) | 1 | – | 50 (≈ 133 µM) | – |
| CCCCCC/C=C/[C@H]1CCC(=O)[C@@H]1CCCCCCC(N)=O (relative stereo) [9-oxo-13-trans-prostenamide] | 2 | 25 (≈ 77.8 µM) | 50 (≈ 156 µM) | 50 (≈ 156 µM) | 10 (≈ 31.1 µM) | 50 (≈ 156 µM) | 50 (≈ 156 µM) | 50 (≈ 156 µM) | 5 | – | 25 (≈ 77.8 µM) | – |
| CCCCCC/C=C/[C@H]1CCC(=O)[C@@H]1CCCCCCC(=O)N1CCOCC1 (relative stereo) | 1 | 25 (≈ 63.8 µM) | – | – | 25 (≈ 63.8 µM) | 250 (≈ 638 µM) | – | 250 (≈ 638 µM) | – | – | 250 (≈ 638 µM) | – |
| CCCCCC/C=C/[C@H]1CCC(O)[C@@H]1CCCCCCC(=O)NCCCN(C)C (stereo partly drawn) [N-(3-dimethylaminopropyl)-9-(α- and β-)-hydroxy-13-trans-prostenamide] | 0.2 | 6 (≈ 14.7 µM) | 250 (≈ 612 µM) | 62 (≈ 152 µM) | 6 (≈ 14.7 µM) | 250 (≈ 612 µM) | 125 (≈ 306 µM) | 125 (≈ 306 µM) | – | 85 | 125 (≈ 306 µM) | – |
| CCCCCC/C=C/[C@H]1CCC(=O)[C@@H]1CCCCCCC(=O)N1CCN(C)CC1 (relative stereo) [listing 2 of 2 here] | 4 | 10 (≈ 24.7 µM) | 25 (≈ 61.8 µM) | 25 (≈ 61.8 µM) | 10 (≈ 24.7 µM) | 25 (≈ 61.8 µM) | 25 (≈ 61.8 µM) | 25 (≈ 61.8 µM) | – | 36 | 10 (≈ 24.7 µM) | – |
| CCCCCC/C=C/[C@H]1CCC(=O)[C@@H]1CCCCCCC(=O)NC (relative stereo) [N-methyl-9-oxo-13-trans-prostenamide] | 4 to 8 | – | 100 (≈ 298 µM) | 5 (≈ 14.9 µM) | – | 100 (≈ 298 µM) | 50 (≈ 149 µM) | 25 (≈ 74.5 µM) | – | – | 25 (≈ 74.5 µM) | – |
| CCCCCC/C=C/[C@H]1CCC(=O)[C@@H]1CCCCCCC(=O)NCCO (relative stereo) [N-(2-hydroxyethyl)-9-oxo-13-trans-prostenamide] | 0.4 | 25 (≈ 68.4 µM) | 25 (≈ 68.4 µM) | 25 (≈ 68.4 µM) | 10 (≈ 27.4 µM) | 25 (≈ 68.4 µM) | 25 (≈ 68.4 µM) | 25 (≈ 68.4 µM) | 1 | – | 10 (≈ 27.4 µM) | – |
| CCCCCC/C=C/[C@H]1CCC(=O)[C@@H]1CCCCCCC(=O)N1CC2CCC(CC2)C1 (relative stereo) | – | – | – | – | – | – | – | – | 4 | – | – | – |
| CCCCCC/C=C/[C@H]1CCC(=O)[C@@H]1CCCCCCC(=O)N1CCN(c2ccccc2)CC1 (relative stereo) | 8 | – | – | – | – | – | – | – | – | – | – | – |
| CCC/C=C/[C@H]1CCC(=O)[C@@H]1CCCCCCC(=O)NCCCN(C)C (relative stereo) [N-(3-dimethylaminopropyl) 9-oxo-18,19,20-trinor-13-trans-prostenamide] | – | – | – | – | – | – | – | – | – | 87 | – | – |
